According to patent publication US6008234A, “Benzamidine derivatives substituted by cyclic amino acid and cyclic hydroxy acid derivatives and their use as anti-coagulants” (Berlex Laboratories, Inc., priority 1997, dated 1999):
Non-standard residues stand in square brackets, D forms with d. Residues, ends and D or L forms follow the SMILES beside them. *: point of attachment. pNA = O=[N+]([O-])c1ccc(N*)cc1

Assays:
[1] = biological target: T1, Human tissue plasminogen activator (tPA) (Two chains, Sigma) (Homo sapiens, UniProt P00750); assay: In vitro chromogenic assay for tPA (S2288 cleavage); type: biochemical; settings: 10 nM tPA; pH 7.5; ambient temperature; substrate concentration stated equal to Km
T1 construct: purchased Sigma
Description: (§1) The activities were determined as an initial rate of cleavage of the peptide p-nitroanilide by the enzyme. The cleavage product, p-nitroaniline, absorbs at 405 nm with a molar extinction coefficient of 9920 M^-1 cm^-1.
(§2) 50 mM TrisHCl, 150 mM NaCl, 2.5 mM CaCl2, and 0.1% polyethylene glycol 6000, pH 7.5.
3. Human tissue plasminogen activator (tPA) (Two chains, Sigma) stock solution: 1 mg/mL, stored at -80° C. (working solution (2×): 1361 ng/mL in assay buffer, prepare prior to use).
3. S2288 (tPA assay) stock solution: 10 mM in deionized H2 O, stored at 4° C. (working solution (4×): 1484 μM in assay buffer).
Assays were performed in 96-well microtiter plates in a total volume of 200 μl. […] Concentrations of the standard inhibitor compound in the assay were from 5 μM to 0.021 μM in 1 to 3 dilution. Concentration of the test compounds in the assay typically were from 10 μM to 0.041 μM in 1 to 3 dilution. […]
(§3) The enzyme kinetics were measured at 405 nm at 10 seconds intervals for five minutes in a THERMOmax plate reader at ambient temperature.
(§4) Enzyme rates were calculated as mOD/min based on the first two minutes readings. The IC50 values were determined by fitting the data to the log-logit equation (linear) or the Morrison equation (non-linear) with an EXCEL spread-sheet. […]

Human thrombin = biological target: T2, Human thrombin (Homo sapiens, UniProt P00734); assay: In vitro chromogenic assay for thrombin (S2302 cleavage); type: biochemical; settings: 20 nM thrombin; pH 7.5; ambient temperature; substrate concentration stated equal to Km
T2 construct: Human thrombin stock solution; purchased Enzyme Research Lab
Description: as §1, §2
2. Human thrombin stock solution: Stored at -80° C. (working solution (2×): 1200 ng/mL or 40 nM in assay buffer, prepare prior to use).
2. S2302 (Thrombin assay) stock solution: 10 mM in deionized H2 O, stored at 4° C. (working solution (4×): 1200 μM in assay buffer).
Assays were performed in 96-well microtiter plates in a total volume of 200 μl. […] Concentrations of the standard inhibitor compound in the assay were from 5 μM to 0.021 μM in 1 to 3 dilution. Concentration of the test compounds in the assay typically were from 10 μM to 0.041 μM in 1 to 3 dilution. For potent test compounds, the concentrations used in the factor Xa assay were further diluted 100 fold (100 nM to 0.41 nM) or 1000 fold (10 nM to 0.041 nM). […]
as §3, §4

T1 sequence (P00750 311-562 limits assumed): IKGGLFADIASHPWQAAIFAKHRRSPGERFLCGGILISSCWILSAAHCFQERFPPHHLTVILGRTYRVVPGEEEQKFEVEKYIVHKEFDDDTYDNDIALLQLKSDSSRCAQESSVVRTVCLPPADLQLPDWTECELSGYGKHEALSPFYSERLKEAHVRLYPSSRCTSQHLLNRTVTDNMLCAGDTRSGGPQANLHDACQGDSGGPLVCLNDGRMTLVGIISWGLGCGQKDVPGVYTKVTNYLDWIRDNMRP
T1 sequence (P00750 36-310 limits assumed): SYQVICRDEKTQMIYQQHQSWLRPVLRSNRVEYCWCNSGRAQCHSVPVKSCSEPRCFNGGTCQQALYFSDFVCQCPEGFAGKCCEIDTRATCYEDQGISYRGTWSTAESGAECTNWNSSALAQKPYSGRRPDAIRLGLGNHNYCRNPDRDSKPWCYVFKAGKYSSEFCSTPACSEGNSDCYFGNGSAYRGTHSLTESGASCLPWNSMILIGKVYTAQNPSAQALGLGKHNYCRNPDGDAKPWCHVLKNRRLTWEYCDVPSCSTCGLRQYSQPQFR

Row | SMILES | Km [1] | Km (Human thrombin)
1 | CC[C@@H](C)[C@@H](N)C(=O)N1CCC[C@H]1C(=O)N[C@@H](CCCN=C(N)N)C(=O)Nc1ccc([N+](=O)[O-])cc1 [Example S2288] (H-[dI]-Pro-Arg-pNA) | 371 µM | –
2 | N=C(N)NCCC[C@H](NC(=O)[C@H](Cc1ccccc1)NC(=O)[C@H]1CCCN1)C(=O)Nc1ccc([N+](=O)[O-])cc1 [Example S2302] (H-[dP]-Phe-Arg-pNA) | – | 300 µM
